In the supplement of paper PMC11451515:

Assays:
Conditions in all cases: 48 h
NOMO1 [1] = assay: cell viability relative to DMSO control; higher = less cytotoxic
Outline: (§1)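 NOMO1 or SEM cells were plated at 500 cells/well and P12-Ichikawa cells at 1000 cells/well in 1536-well plates (5 μl), after each leukemia line had been adapted for at least four passages in each medium. Pin dosing delivered library compounds in DMSO at 11 threefold concentrations, 47 μM to 0.79 nM. CellTiter-Glo One luminescence was read after 48 h at 37°C. Viability is reported as a per-plate percentage of DMSO wells, with cell-free wells as background.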

P12-Ichikawa [2] = assay: as above
Outline: as §1

SEM cells [3] = assay: as above
Outline: as §1

NOMO1 [4] = assay: AUC of viability dose-response curve (% viability x log10 dose units); higher = less sensitive
Outline: (§2)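 Medium-adapted leukemia cells in 1536-well plates, at 500 or 1000 cells/well, were incubated for 48 h at 37°C with library compounds in DMSO at 11 threefold doses from 47 μM to 0.79 nM. CellTiter-Glo One luminescence normalised per plate to DMSO and cell-free wells was fitted with a four-parameter log-logistic model over log10 doses. Area under the curve was integrated from this fit by trapezoidal rule, with curves beyond full viability scaled and failed quality-control curves removed.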

P12-Ichikawa [5] = assay: as above
Outline: as §2

SEM cells [6] = assay: as above
Outline: as §2

C[C@@H]1C[C@H]2[C@@H]3CC\C4=C\C(=O)\C=C/[C@]4(C)[C@@]3(Cl)[C@@H](O)C[C@]2(C)[C@@]1(OC(=O)C5=CC=CO5)C(=O)CCl
cell viability [%]
Conditions	NOMO1 [1]	P12-Ichikawa [2]	SEM cells [3]
HPLM + 10% dialyzed FBS, 0.000781 µM	118	98.5	28.4
HPLM + 10% dialyzed FBS, 0.00234 µM	109	93.7	82.2
HPLM + 10% dialyzed FBS, 0.00702 µM	113	71.9	45.9
HPLM + 10% dialyzed FBS, 0.0211 µM	115	66.9	53.8
HPLM + 10% dialyzed FBS, 0.0632 µM	118	64.6	61
HPLM + 10% dialyzed FBS, 0.19 µM	99.2	64.7	59.3
HPLM + 10% dialyzed FBS, 0.569 µM	103	60.8	53.2
HPLM + 10% dialyzed FBS, 1.71 µM	107	61.6	47.7
HPLM + 10% dialyzed FBS, 5.12 µM	81.9	57.9	36.9
HPLM + 10% dialyzed FBS, 15.4 µM	71.6	40.9	45.6
HPLM + 10% dialyzed FBS, 46.1 µM	84.2	50	52
RPMI 5 mM glucose + 10% FBS, 0.000781 µM	112	99.2	32.3
RPMI 5 mM glucose + 10% FBS, 0.00234 µM	111	97.7	81.8
RPMI 5 mM glucose + 10% FBS, 0.00702 µM	101	65.4	35.8
RPMI 5 mM glucose + 10% FBS, 0.0211 µM	102	54.6	62.1
RPMI 5 mM glucose + 10% FBS, 0.0632 µM	104	52.1	61
RPMI 5 mM glucose + 10% FBS, 0.19 µM	103	49.3	50.4
RPMI 5 mM glucose + 10% FBS, 0.569 µM	108	53.7	50.4
RPMI 5 mM glucose + 10% FBS, 1.71 µM	101	51.3	45.1
RPMI 5 mM glucose + 10% FBS, 5.12 µM	97.1	41.6	36.9
RPMI 5 mM glucose + 10% FBS, 15.4 µM	70.5	32.6	37.3
RPMI 5 mM glucose + 10% FBS, 46.1 µM	84.2	40.2	50.8
RPMI 5 mM glucose + 10% dialyzed FBS, 0.000781 µM	95.1	93	30.9
RPMI 5 mM glucose + 10% dialyzed FBS, 0.00234 µM	112	84.6	76.5
RPMI 5 mM glucose + 10% dialyzed FBS, 0.00702 µM	106	59.1	39
RPMI 5 mM glucose + 10% dialyzed FBS, 0.0211 µM	113	50.6	52.5
RPMI 5 mM glucose + 10% dialyzed FBS, 0.0632 µM	105	44.1	64.1
RPMI 5 mM glucose + 10% dialyzed FBS, 0.19 µM	110	46.2	47
RPMI 5 mM glucose + 10% dialyzed FBS, 0.569 µM	98	40	46.8
RPMI 5 mM glucose + 10% dialyzed FBS, 1.71 µM	109	41.2	44.7
RPMI 5 mM glucose + 10% dialyzed FBS, 5.12 µM	97.9	35.8	28.8
RPMI 5 mM glucose + 10% dialyzed FBS, 15.4 µM	65.4	30.2	43
RPMI 5 mM glucose + 10% dialyzed FBS, 46.1 µM	79.7	30.7	36.5

AUC of viability dose-response curve
Conditions	NOMO1 [4]	P12-Ichikawa [5]	SEM cells [6]
HPLM + 10% dialyzed FBS	442	313	245
RPMI 5 mM glucose + 10% FBS	454	265	236
RPMI 5 mM glucose + 10% dialyzed FBS	451	234	222

CC1=C(CC/C(C)=C/CCC2=CCC(C3=CC(=O)OC3O)OC2O)C(C)(C)CCC1 (stereo not given)
cell viability [%], SEM cells [3]
Conditions	HPLM + 10% dialyzed FBS	RPMI 5 mM glucose + 10% dialyzed FBS
0.000781 µM	115	121
0.00234 µM	129	124
0.00702 µM	114	119
0.0211 µM	129	112
0.0632 µM	46.6	27.5
0.19 µM	125	132
0.569 µM	138	148
1.71 µM	127	115
5.12 µM	71.4	54
15.4 µM	107	140
46.1 µM	106	129

AUC of viability dose-response curve
Conditions	HPLM + 10% dialyzed FBS	RPMI 5 mM glucose + 10% FBS	RPMI 5 mM glucose + 10% dialyzed FBS
NOMO1 [4]	434	469	466
P12-Ichikawa [5]	457	434	443

CC(=O)Nc1sc2c(c1-c1nc3ccccc3s1)CNC2
AUC of viability dose-response curve
Conditions	NOMO1 [4]	P12-Ichikawa [5]	SEM cells [6]
HPLM + 10% dialyzed FBS	386	463	437
RPMI 5 mM glucose + 10% FBS	462	452	443
RPMI 5 mM glucose + 10% dialyzed FBS	384	453	439
